Assay results as given in patent US20220071971A1, “MACROCYCLIC COMPOUNDS AND THEIR USE IN THE TREATMENT OF DISEASE” (NOVARTIS AG, priority 2018, published 2022).

Molecular target: T1, delF508-CFTR (Homo sapiens, UniProt P13569, DEL508-508)
T1 construct: expressed in transfected cells
Test: Measurement of delF508-CFTR-HRP surface expression in CFBE41o- cells
Assay type: cell-based
Details: for EC50: HRP-tagged delF508-CFTR surface expression, CFBE41o- cells, 24 h with compound, 10-point curve, highest concentration 10 μM; for DelF508-CFTR-HRP Amax % / Emax: efficacy relative to reference compound 3-(6-(1-(2,2-difluorobenzo[d][1,3]dioxol-5-yl)cyclopropane-1-carboxamido)-3-methylpyridin-2-yl)benzoic acid; for Emax: CFBE41o-, read-out: DelF508-CFTR-HRP Amax %
Text: Measurement of deIF508-CFTR-HRP Surface Expression in CFBE41o-Cells
This assay quantifies the cell surface expressions of the mutant CFTR channel using an extracellular HRP tag.
A cellular assay was developed to measure surface expression of horseradish peroxidase (HRP) tagged delF508-CFTR in the human bronchial epithelial immortalized CFBE41o-cell line (Phuan, P. W., et al, (2014) Molecular Pharmacology 86:42-51). Specifically, the HRP sequence was inserted into the fourth extracellular loop of delF508-CFTR and stably expressed in CFBE41o-cells. Cells were seeded in 384 well plate at a density of 5000 cells/well and incubated at 37° C. for 12 to 24 hours in medium (Gibco MEM #11095, 10% FBS, 10 mM HEPES, […], 200 μg/mL G418, 3 μg/mL Puromycin). The delF508-CFTR-HRP expression was induced with 500 ng/mL doxycycline (Sigma D-9891, dissolved in H2O and sterile filtered) in medium and the cells were incubated at 37° C. for 48 h. Old medium was removed and fresh medium was added containing 500 ng/mL doxycycline and unknown test compound at required test concentration in DMSO, not exceeding 0.5% final DMSO concentration. The highest concentration tested was 10 μM with a 10-point concentration response curve using a 3-fold dilution. After addition of compounds, the cells were incubated for 24 h at 37° C. On the final day, cells were washed four times in PBS containing 1 mM MgCl2 and 0.1 mM CaCl2. HRP-Substrate (SuperSignal ELISA Pico, Fisher #37069) 20 μl/well was added and the luminescence signal was determined (Viewlux, Perkin Elmer). Light was emitted upon addition of exogenous HRP-Substrate only when delF508-CFTR-HRP reached the cell surface and the HRP tag was accessible to the HRP-Substrate (note: HRP-Substrate cannot cross the lipid bilayer to reach delF508-CFTR-HRP misfolded within the cell).
The median activity for the lowest concentration of the compounds on each assay plate was calculated and this value was used to normalize the signal for each well on the respective plate. Three replicates at each concentrations for every compound were run to determine one EC50. The median value was determined and used to calculate compound activities as described below. Effective half maximal values (EC50) were calculated for each compound by performing logistic regression on measured dose-response data points using the equation: […]
where “Y” is the observed activity, “Bottom” is the lowest observed value, “Top” is the highest observed value, and the “Hill coefficient” gives the largest absolute value of the slope. The curve fitting is carried out by a curve fitting program implemented at GNF using Matlab (Mathworks).
The dose response curves also were used to calculate Fold Change (FC) using the equation: […]
Compound efficacy relative to the reference compound 3-(6-(1-(2,2-difluorobenzo[d][1,3]dioxol-5-yl)cyclopropane-1-carboxamido)-3-methylpyridin-2-yl)benzoic acid was determined using the following formula: […]

T1 sequence (P13569 with tags, fused parts or gaps DEL508-508): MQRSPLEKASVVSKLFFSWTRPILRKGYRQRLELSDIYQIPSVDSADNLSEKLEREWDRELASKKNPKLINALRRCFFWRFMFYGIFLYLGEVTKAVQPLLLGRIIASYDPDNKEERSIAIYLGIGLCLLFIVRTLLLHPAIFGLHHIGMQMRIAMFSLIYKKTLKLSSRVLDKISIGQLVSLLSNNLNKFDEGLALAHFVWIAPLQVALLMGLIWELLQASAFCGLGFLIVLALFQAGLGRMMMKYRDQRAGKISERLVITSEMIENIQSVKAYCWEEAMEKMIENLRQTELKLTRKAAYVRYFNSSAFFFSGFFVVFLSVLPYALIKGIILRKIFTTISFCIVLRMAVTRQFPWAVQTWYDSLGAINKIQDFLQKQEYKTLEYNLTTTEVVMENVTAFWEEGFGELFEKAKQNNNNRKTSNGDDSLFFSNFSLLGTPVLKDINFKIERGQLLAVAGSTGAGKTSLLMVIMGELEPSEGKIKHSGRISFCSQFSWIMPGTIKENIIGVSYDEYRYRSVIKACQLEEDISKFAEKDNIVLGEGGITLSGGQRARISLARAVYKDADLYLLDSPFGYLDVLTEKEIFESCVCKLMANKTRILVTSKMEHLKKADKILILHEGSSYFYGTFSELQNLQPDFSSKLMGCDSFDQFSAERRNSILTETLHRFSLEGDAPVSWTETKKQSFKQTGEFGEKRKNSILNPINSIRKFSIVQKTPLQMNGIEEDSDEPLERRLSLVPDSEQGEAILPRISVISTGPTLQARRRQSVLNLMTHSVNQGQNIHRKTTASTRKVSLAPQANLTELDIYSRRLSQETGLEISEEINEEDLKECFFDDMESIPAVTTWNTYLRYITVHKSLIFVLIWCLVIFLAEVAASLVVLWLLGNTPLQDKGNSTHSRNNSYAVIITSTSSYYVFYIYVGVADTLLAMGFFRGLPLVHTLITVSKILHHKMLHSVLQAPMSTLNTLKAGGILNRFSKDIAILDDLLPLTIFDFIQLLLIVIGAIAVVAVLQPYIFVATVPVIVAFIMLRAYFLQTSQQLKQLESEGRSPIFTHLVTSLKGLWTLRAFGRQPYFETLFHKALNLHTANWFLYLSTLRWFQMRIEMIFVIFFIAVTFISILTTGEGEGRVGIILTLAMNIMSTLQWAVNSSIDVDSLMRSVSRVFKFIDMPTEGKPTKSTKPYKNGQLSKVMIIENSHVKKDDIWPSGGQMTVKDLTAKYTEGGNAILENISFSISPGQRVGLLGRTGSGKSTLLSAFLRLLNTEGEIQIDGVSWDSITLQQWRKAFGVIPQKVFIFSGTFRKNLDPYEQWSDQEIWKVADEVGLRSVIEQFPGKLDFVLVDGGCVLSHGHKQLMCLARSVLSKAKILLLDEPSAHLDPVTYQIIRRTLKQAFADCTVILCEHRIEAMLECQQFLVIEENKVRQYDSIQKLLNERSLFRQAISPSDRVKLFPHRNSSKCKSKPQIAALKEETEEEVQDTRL

Row | Molecule | EC50 [nM] | DelF508-CFTR-HRP Amax % [%] | Emax [%]
1 | 6-(3-hydroxypropyl)-2^3-(trifluoromethyl)-9-oxa-4-thia-3,6-diaza-2,5(2,6)-dipyridina-1(1,2)-benzenacyclododecaphane 4,4-dioxide [Compound 30] | 1480 | 1656.8 | 
2 | 8-hydroxy-2^3-(trifluoromethyl)-4-thia-3,6-diaza-2,5(2,6)-dipyridina-1(1,2)-benzenacycloundecaphane 4,4-dioxide [Compound 38] | 1410 | 224.1 | 
3 | O=S1(=O)Nc2ccc(C(F)(F)F)c(n2)-c2ccccc2OCCCCNc2cccc1n2 [Compound 1, 2^3-(trifluoromethyl)-11-oxa-4-thia-3,6-diaza-2,5(2,6)-dipyridina-1(1,2)-benzenacycloundecaphane 4,4-dioxide] | 978 |  | 372
4 | O=S1(=O)Nc2ccc(C(F)(F)F)c(n2)-c2ccccc2OCCCCN(CCO)c2cccc1n2 [Compound 2, 6-(2-hydroxyethyl)-2^3-(trifluoromethyl)-11-oxa-4-thia-3,6-diaza-2,5(2,6)-dipyridina-1(1,2)-benzenacycloundecaphane 4,4-dioxide] | 606 |  | 610
5 | CCOC(=O)CN1CCCCOc2ccccc2-c2nc(ccc2C(F)(F)F)NS(=O)(=O)c2cccc1n2 [Compound 3, ethyl 2-(4,4-dioxido-2^3-(trifluoromethyl)-11-oxa-4-thia-3,6-diaza-2,5(2,6)-dipyridina-1(1,2)-benzenacycloundecaphane-6-yl)acetate] | 335 |  | 361
6 | O=C(O)CN1CCCCOc2ccccc2-c2nc(ccc2C(F)(F)F)NS(=O)(=O)c2cccc1n2 [Compound 4, 2-(4,4-dioxido-2^3-(trifluoromethyl)-11-oxa-4-thia-3,6-diaza-2,5(2,6)-dipyridina-1(1,2)-benzenacycloundecaphane-6-yl)acetic acid] | 2870 |  | 74.4
7 | O=S1(=O)Nc2ccc(C(F)(F)F)c(n2)-c2cccnc2NCCCCNc2cccc1n2 [Compound 5, 2^3-(trifluoromethyl)-4-thia-3,6,11-triaza-1(3,2),2,5(2,6)-tripyridinacycloundecaphane 4,4-dioxide] | 1620 |  | 159
8 | O=S1(=O)Nc2ccc(C(F)(F)F)c(n2)-c2cccnc2NCCCCCNc2cccc1n2 [Compound 6, 2^3-(trifluoromethyl)-4-thia-3,6,12-triaza-1(3,2),2,5(2,6)-tripyridinacyclododecaphane 4,4-dioxide] | 1680 |  | 248
9 | O=S1(=O)Nc2ccc(C(F)(F)F)c(n2)-c2cccnc2NCCCCCCNc2cccc1n2 [Compound 7, 2^3-(trifluoromethyl)-4-thia-3,6,13-triaza-1(3,2),2,5(2,6)-tripyridinacyclotridecaphane 4,4-dioxide] | 977 |  | 386
10 | CN1CCCCCCN(C)c2ncccc2-c2nc(ccc2C(F)(F)F)NS(=O)(=O)c2cccc1n2 [Compound 8, 6,13-dimethyl-2^3-(trifluoromethyl)-4-thia-3,6,13-triaza-1(3,2),2,5(2,6)-tripyridinacyclotridecaphane 4,4-dioxide] | 410 |  | 564
11 | CN1CCCN(C)c2ncccc2-c2nc(ccc2C(F)(F)F)NS(=O)(=O)c2cccc1n2 [Compound 9, 6,10-dimethyl-2^3-(trifluoromethyl)-4-thia-3,6,10-triaza-1(3,2),2,5(2,6)-tripyridinacyclodecaphane 4,4-dioxide] | 1710 |  | 367
12 | O=S1(=O)Nc2ccc(C(F)(F)F)c(n2)-c2cccnc2NCCCNc2cccc1n2 [Compound 10, 2^3-(trifluoromethyl)-4-thia-3,6,10-triaza-1(3,2),2,5(2,6)-tripyridinacyclodecaphane 4,4-dioxide] | 2800 |  | 29
13 | O=S1(=O)Nc2ccc(C(F)(F)F)c(n2)-c2ccccc2COCCCNc2cccc1n2 [Compound 11, 2^3-(trifluoromethyl)-10-oxa-4-thia-3,6-diaza-2,5(2,6)-dipyridina-1(1,2)-benzenacycloundecaphane 4,4-dioxide] | 1360 |  | 442
